IC50 data for 30 compounds are collected here from patent US6410792B1, “Amide derivatives and methods for using the same as selective neuropeptide Y receptor antagonists” (Bayer Corporation, priority 1997, dated 2002).

Test [1] addresses T1, Human NPY5 receptor (Homo sapiens, UniProt Q15761).
T1 sequence (Q15761 1-445): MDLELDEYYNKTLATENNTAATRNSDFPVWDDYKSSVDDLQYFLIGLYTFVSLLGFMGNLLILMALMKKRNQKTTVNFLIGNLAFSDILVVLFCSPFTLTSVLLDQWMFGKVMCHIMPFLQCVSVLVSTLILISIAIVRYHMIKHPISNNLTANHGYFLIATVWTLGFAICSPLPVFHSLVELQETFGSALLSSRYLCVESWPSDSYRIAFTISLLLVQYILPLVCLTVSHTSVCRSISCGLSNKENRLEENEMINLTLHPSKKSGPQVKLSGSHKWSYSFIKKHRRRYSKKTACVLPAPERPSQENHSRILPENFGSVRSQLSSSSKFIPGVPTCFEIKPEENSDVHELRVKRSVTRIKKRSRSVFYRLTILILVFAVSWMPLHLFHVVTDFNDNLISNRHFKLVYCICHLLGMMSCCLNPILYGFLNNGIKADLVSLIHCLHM
The test can be described thus: Human NPY5 receptor binding assay ([125I]PYY, membrane protein). To be noted: read-out: hNPY5 IC50. Put shortly: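 Competition against porcine [125I]PYY (75-100 pM) on receptor membranes, 2 h, room temperature, Tris-based pH 7.4 buffer with BSA and bacitracin. Bound radioactivity after filtration and ice-cold rinse counted by gamma or liquid scintillation; 1 μM PYY defines nonspecific binding.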

For test [2], the target named is T2, Rat NPY5 receptor (Rattus norvegicus, UniProt Q63634).
T2 sequence (Q63634 1-445): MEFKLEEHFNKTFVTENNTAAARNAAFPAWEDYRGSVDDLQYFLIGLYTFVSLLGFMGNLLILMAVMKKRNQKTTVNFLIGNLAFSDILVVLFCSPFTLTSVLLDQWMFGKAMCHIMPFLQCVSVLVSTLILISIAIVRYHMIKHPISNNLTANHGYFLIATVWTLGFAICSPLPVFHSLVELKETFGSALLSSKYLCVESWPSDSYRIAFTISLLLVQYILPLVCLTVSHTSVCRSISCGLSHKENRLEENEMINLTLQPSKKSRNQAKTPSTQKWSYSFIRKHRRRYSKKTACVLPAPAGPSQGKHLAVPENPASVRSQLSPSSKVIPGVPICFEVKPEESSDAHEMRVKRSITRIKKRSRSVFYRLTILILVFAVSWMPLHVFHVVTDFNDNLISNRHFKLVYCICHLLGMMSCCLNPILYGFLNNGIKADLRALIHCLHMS
The test can be described thus: Rat NPY5 receptor binding assay ([125I]PYY, membrane protein). How it is done: C. Human and Rat NPY5 Receptor Binding Assays
Binding assays are performed on GF/C Millipore 96well plates pretreated with 0.02% polyethylenimine. The binding buffer is 25 mM Tris, 120 mM NaCl, 5 mM KCl, 1.2 mM KH2PO4, 2.5 mM CaCl2, 1.2 mM MgSO4, 0.1% BSA and 0.5 mg/ml bacitracin, pH 7.4. Samples consist of membrane protein, 75-100 pM [125I]PYY (porcine, NEN-DuPont) and drug dilution. Nonspecific binding is defined by 1 μM PYY. After a 2 hour incubation at room temperature with constant mixing, the samples are aspirated on a vacuum manifold, and rinsed with ice-cold binding buffer. The amount of radioactivity in each well is quantitated with either gamma counting or liquid scintillation.

Where [3] appears, read: [125I]PYY binding, read-out: rNPY5 IC50.
Where [4] appears, read: [125I]PYY, read-out: rNPY5 IC50.

Structures can show the parent of a compound that is named as a salt. Where two headings read alike, the source gives them in different places.

In the case of `CNC1CCN(CC(=O)Nc2ccc(C3CCCCC3)cc2)C1` (stereo not drawn) [Compound 198, N-(4-Cyclohexyl-phenyl)-2-(3-methylamino-pyrrolidin-1-yl)-acetamide], the IC50 stood at 1 µM in test [1] ([125I]PYY binding) and 1.3 µM in test [2] (setting [3]).

With `CCNC1CCN(CC(=O)Nc2ccc(C3CCCCC3)cc2)C1` (stereo not drawn) [Compound 199, N-(4-Cyclohexyl-phenyl)-2-(3-ethylamino-pyrrolidin-1-yl)-acetamide], the IC50 in test [1] ([125I]PYY binding) was determined as 0.82 µM; in test [2] (setting [3]), 2.4 µM.

`O=C(CN1CCC(CO)CC1)Nc1ccc(C2CCCCC2)cc1` [Compound 200, N-(4-Cyclohexyl-phenyl)-2-(4-hydroxymethyl-piperidin-1-yl)-acetamide]: the results for the concentration for half-maximal inhibition (IC50) in test [1] ([125I]PYY binding) and in test [2] (setting [3]) were 0.53 µM and 0.34 µM, respectively.

For `COc1cc(CCNCC(=O)Nc2ccc(C(=O)c3ccccc3)cc2)ccc1O` [Compound 202, N-(4-Benzoyl-phenyl)-2-[2-(4-hydroxy-3-methoxy-phenyl)-ethylamino]-acetamide], the concentration for half-maximal inhibition (IC50) in test [1] ([125I]PYY binding) is 0.058 µM; in test [2] (setting [3]), 0.053 µM.

With `CNC1CCN(CC(=O)Nc2ccc(C(=O)c3ccccc3)cc2)C1` (stereo not drawn) [Compound 203, N-(4-Benzoyl-phenyl)-2-(3-methylamino-pyrrolidin-1-yl)-acetamide], the IC50 amounted to 0.2 µM in test [1] ([125I]PYY binding) and 0.18 µM in test [2] (setting [3]).

Consider `CC(C)(C)OC(=O)NC1CCN(CC(=O)Nc2ccc(C(=O)c3ccccc3)cc2)C1` (stereo not drawn) [Compound 205, {1-[(4-Benzoyl-phenylcarbamoyl)-methyl]-pyrrolidin-3-yl}-carbamic acid tert-butyl ester], for which the concentration for half-maximal inhibition (IC50) in test [1] ([125I]PYY binding) came out at 0.072 µM; in test [2] (setting [3]), 0.071 µM.

Take `CCNC1CCN(CC(=O)Nc2ccc(C(=O)c3ccccc3)cc2)C1` (stereo not drawn) [Compound 206, N-(4-Benzoyl-phenyl)-2-(3-ethylamino-pyrrolidin-1-yl)-acetamide]: the results for the IC50 in test [1] ([125I]PYY binding) and in test [2] (setting [3]) were 0.042 µM and 0.048 µM, respectively.

`O=C(CN1CCC(NC(=O)C(F)(F)F)C1)Nc1ccc(C(=O)c2ccccc2)cc1` (stereo not drawn) [Compound 207]: the IC50 was 0.048 µM in test [1] ([125I]PYY binding) and 0.05 µM in test [2] (setting [3]).

For `N#CCNCC(=O)Nc1ccc(C(=O)c2ccccc2)cc1` [Compound 211, N-(4-Benzoyl-phenyl)-2-(cyanomethyl-amino)-acetamide], the IC50 in test [1] ([125I]PYY binding) is 1.3 µM; in test [2] (setting [3]), 1 µM.

With `O=C(CNCc1ccc(C(=O)O)cc1)Nc1ccc(C2CCCCC2)cc1` [Compound 212], the concentration for half-maximal inhibition (IC50) in test [1] ([125I]PYY binding) and in test [2] (setting [3]) was > 10 µM in each case.

On to `C#CC(C)(C)NCC(=O)Nc1ccc(C2CCCCC2)cc1` [Compound 213, N-(4-Cyclohexyl-phenyl)-2-(1,1-dimethyl-prop-2-ynylamino)-acetamide], for which the half-inhibitory concentration (IC50) in test [1] ([125I]PYY binding) and in test [2] (setting [3]) was 0.36 µM throughout.

On to `CN(C(=O)OC(C)(C)C)C1CCN(CC(=O)Nc2ccc(C3CCCCC3)cc2)C1` (stereo not drawn) [Compound 215, {1-[(4-Cyclohexyl-phenylcarbamoyl)-methyl]-pyrrolidin-3-yl)-methyl-carbamic acid tert-butyl ester], for which the IC50 in test [1] ([125I]PYY binding) was found to be 0.17 µM; in test [2] (setting [3]) it was 0.3 µM.

As for `CCCC(CO)NCC(=O)Nc1ccc(C2CCCCC2)cc1` (stereo not drawn) [Compound 216, N-(4-Cyclohexyl-phenyl)-2-(1-hydroxymethyl-butylamino)-acetamide], the IC50 in test [1] ([125I]PYY binding) was 0.45 µM; in test [2] (setting [3]), > 10 µM.

On to `C=CCC(NCC(=O)Nc1ccc(C2CCCCC2)cc1)C(=O)O` (stereo not drawn) [Compound 220, 2-{[(4-Cyclohexyl-phenylcarbamoyl)-methyl]-amino}-pent-4-enoic acid], for which the half-maximal inhibitory concentration (IC50) stood at 0.54 µM in test [1] ([125I]PYY binding) and 0.72 µM in test [2] (setting [3]).

Turning to `CC(=O)OC1CC2CC1N(CC(=O)Nc1ccc(C3CCCCC3)cc1)C2` (stereo not drawn) [Compound 221, Acetic acid 2-[(4-cyclohexyl-phenylcarbamoyl)-methyl]-2-aza-bicyclo[2.2.1]hept-6-yl ester], the IC50 in test [1] ([125I]PYY binding) and in test [2] (setting [3]) was 0.029 µM each time.

As to `O=C(CNCc1ccc(C(=O)O)cc1)Nc1ccc(C(=O)c2ccccc2)cc1` [Compound 222, 4-({[(4-Benzoyl-phenylcarbamoyl)-methyl]-amino}-methyl)-benzoic acid], the half-maximal inhibitory concentration (IC50) in test [1] ([125I]PYY binding) and in test [2] (setting [3]) was > 10 µM in each case.

Turning to `C#CC(C)(C)NCC(=O)Nc1ccc(C(=O)c2ccccc2)cc1` [Compound 223, N-(4-Benzoyl-phenyl)-2-(1,1-dimethyl-prop-2-ynylamino)-acetamide], the IC50 is 0.54 µM in test [1] ([125I]PYY binding) and 1.4 µM in test [2] (setting [3]).

As to `CN(C(=O)OC(C)(C)C)C1CCN(CC(=O)Nc2ccc(C(=O)c3ccccc3)cc2)C1` (stereo not drawn) [Compound 225, {1-[(4-Benzoyl-phenylcarbamoyl)-methyl]-pyrrolidin-3-yl)-methyl-carbamic acid tert-butyl ester], the IC50 in test [1] ([125I]PYY binding) amounted to 0.32 µM; in test [2] (setting [3]), 0.19 µM.

Regarding `C=CCC(NCC(=O)Nc1ccc(C(=O)c2ccccc2)cc1)C(=O)O` (stereo not drawn) [Compound 230, 2-{[(4-Benzoyl-phenylcarbamoyl)-methyl]-amino}-pent-4-enoic acid], the values for the half-inhibitory concentration (IC50) in test [1] ([125I]PYY binding) and in test [2] (setting [3]) were 0.81 µM and 2.5 µM, respectively.

For the compound `CC(=O)OC1CC2CC1N(CC(=O)Nc1ccc(C(=O)c3ccccc3)cc1)C2` (stereo not drawn) [Compound 231, Acetic acid 2-[(4-benzoyl-phenylcarbamoyl)-methyl]-2-aza-bicyclo[2.2.1]hept-6-yl ester], the IC50 was 0.067 µM in test [1] ([125I]PYY binding) and 0.074 µM in test [2] (setting [3]).

For `O=C(CNCCCn1ccnc1)Nc1ccc(C2CCCCC2)cc1` [Compound 234, N-(4-Cyclohexyl-phenyl)-2-(3-imidazol-1-yl-propylamino)-acetamide], the IC50 in test [1] ([125I]PYY binding) worked out at 0.95 µM; in test [2] (setting [3]) it was 0.61 µM.

Take `C=CCNCC(=O)Nc1ccc(C2CCCCC2)cc1` [Compound 235, 2-Allylamino-N-(4-cyclohexyl-phenyl)-acetamide]: the half-inhibitory concentration (IC50) is 1.6 µM in test [1] ([125I]PYY binding) and 3.8 µM in test [2] (setting [3]).

Take `CC(=CC#N)NCC(=O)Nc1ccc(C2CCCCC2)cc1` [Compound 237, 2-(2-Cyano-1-methyl-vinylamino)-N-(4-cyclohexyl-phenyl)-acetamide]: the IC50 in test [1] ([125I]PYY binding) was 4.4 µM; in test [2] (setting [3]) it was 1 µM.

Regarding `COC(=O)C=C(C)NCC(=O)Nc1ccc(C2CCCCC2)cc1` [Compound 238, 3-{[(4-Cyclohexyl-phenylcarbamoyl)-methyl]-amino}-but-2-enoic acid methyl ester], the concentration for half-maximal inhibition (IC50) in test [1] ([125I]PYY binding) came out at 0.65 µM; in test [2] (setting [3]), 0.55 µM.

`COC(CNCC(=O)Nc1ccc(C2CCCCC2)cc1)OC` [Compound 241, N-(4-Cyclohexyl-phenyl)-2-(2,2-dimethoxy-ethylamino)-acetamide]: the half-inhibitory concentration (IC50) in test [1] ([125I]PYY binding) is 0.28 µM; in test [2] (setting [3]) it was 0.23 µM.

Turning to `O=C(CNC1CCC1)Nc1ccc(C(=O)c2ccccc2)cc1` [Compound 242, N-(4-Benzoyl-phenyl)-2-cyclobutylamino-acetamide], the results for the concentration for half-maximal inhibition (IC50) in test [1] ([125I]PYY binding) and in test [2] (setting [3]) were 4.4 µM and 5 µM, respectively.

Regarding `O=C(CNCCCn1ccnc1)Nc1ccc(C(=O)c2ccccc2)cc1` [Compound 244, N-(4-Benzoyl-phenyl)-2-(3-imidazol-1-yl-propylamino)-acetamide], the figures for the 50% inhibitory concentration (IC50) in test [1] ([125I]PYY binding) and in test [2] (setting [3]) were 0.67 µM and 3 µM, respectively.

As to `CCN(CC)CCCC(C)NCC(=O)Nc1ccc(C(=O)c2ccccc2)cc1` (stereo not drawn) [Compound 246, N-(4-Benzoyl-phenyl)-2-(4-diethylamino-1-methyl-butylamino)-acetamide], the IC50 turned out to be 1.6 µM in test [1] ([125I]PYY) and 1.7 µM in test [2] (setting [4]).

Consider `O=C(CN1CCC(O)(Cc2ccccc2)CC1)Nc1ccc(-c2ccccc2)cc1` [Compound 315, 2-(4-Benzyl-4-hydroxy-piperidin-1-yl)-N-biphenyl-4-yl-acetamide; hydrochloride], for which the IC50 amounted to 0.8 µM in test [1] ([125I]PYY) and 2 µM in test [2] (setting [4]).

Take `CCC(=O)C1(c2ccccc2)CCN(CC(=O)Nc2ccc(-c3ccccc3)cc2)CC1` [Compound 317, N-Biphenyl-4-yl-2-(4-phenyl-4-propionyl-piperidin-1-yl)-acetamide: hydrochloride]: the IC50 in test [1] ([125I]PYY) came to 0.01 µM; in test [2] (rNPY5 IC50, [125I]PYY), 0.011 µM.

What is called IC50 is the midpoint of a concentration-inhibition curve.
